Measured values taken from US7772180B2, “Hepatitis C virus inhibitors” (Bristol-Myers Squibb Company, priority 2006, dated 2010).

Molecular target: T1, HCV NS3/4A protease complex, J4L6S strain (Hepatitis C virus genotype 1b, UniProt O92972, C1454S/C1711G)
T1 construct: DNA encoding the recombinant HCV NS3/4A protease complex (amino acids 1027 to 1711) for these strains; made in house; host or cells: Escherichia coli BL21 (DE3), pET21b
Assay: FRET peptide assay to monitor HCV NS3/4A proteolytic activity (J4L6S strain)
Format: biochemical
Details: read-out: IC50 against the NS3/4A J4L6S strain
From the text: HCV NS3 protease complexes, derived from the BMS strain, H77 strain or J4L6S strain, were generated, as described below. These purified recombinant proteins were generated for use in a homogeneous assay (see below) to provide an indication of how effective compounds of the present disclosure would be in inhibiting HCV NS3 proteolytic activity.
Serum from an HCV-infected patient was obtained from Dr. T. Wright, San Francisco Hospital. An engineered full-length cDNA (compliment deoxyribonucleic acid) template of the HCV genome (BMS strain) was constructed from DNA fragments obtained by reverse transcription-PCR (RT-PCR) of serum RNA (ribonucleic acid) and using primers selected on the basis of homology between other genotype 1a strains. From the determination of the entire genome sequence, a genotype 1a was assigned to the HCV isolate according to the classification of Simmonds et al. (See P Simmonds, K A Rose, S Graham, S W Chan, F McOmish, B C Dow, E A Follett, P L Yap and H Marsden, J. Clin. Microbiol., 31(6), 1493-1503 (1993)). […]

T1 sequence (O92972 1027-1711 C1454S/C1711G, one chain of several): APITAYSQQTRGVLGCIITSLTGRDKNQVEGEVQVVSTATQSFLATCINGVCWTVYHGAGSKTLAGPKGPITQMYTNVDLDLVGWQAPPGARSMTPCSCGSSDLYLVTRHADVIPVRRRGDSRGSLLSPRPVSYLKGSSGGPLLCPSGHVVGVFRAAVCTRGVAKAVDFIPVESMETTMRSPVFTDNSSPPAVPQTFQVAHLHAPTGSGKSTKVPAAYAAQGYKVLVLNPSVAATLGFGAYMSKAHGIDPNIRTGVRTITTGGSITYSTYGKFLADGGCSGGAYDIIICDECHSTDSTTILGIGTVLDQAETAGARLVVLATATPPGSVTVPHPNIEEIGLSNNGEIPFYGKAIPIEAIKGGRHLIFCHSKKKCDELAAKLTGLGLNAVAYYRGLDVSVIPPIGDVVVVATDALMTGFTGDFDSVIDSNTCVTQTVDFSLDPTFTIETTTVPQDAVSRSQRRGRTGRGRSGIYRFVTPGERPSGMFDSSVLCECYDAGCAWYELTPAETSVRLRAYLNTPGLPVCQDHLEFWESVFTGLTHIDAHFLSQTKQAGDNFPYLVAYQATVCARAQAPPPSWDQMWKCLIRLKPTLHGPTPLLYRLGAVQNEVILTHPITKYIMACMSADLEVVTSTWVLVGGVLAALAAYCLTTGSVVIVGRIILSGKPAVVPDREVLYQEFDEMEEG

With `C=C[C@@H]1C[C@]1(NC(=O)[C@@H]1C[C@@H](Oc2nc(N(C)C)cc3cc(OC)ccc23)CN1C(=O)C(Nc1cc(C)cc(C)n1)C(C)(C)C)C(=O)NS(=O)(=O)C1CC1` (single isomer, unassigned) [Compound 18] as the compound, how does the IC50 read?
The IC50 was 0.9 nM.
